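Each compound was tested at five concentrations against cells in 96-well plates for 48 hours. The concentration for 50% growth inhibition is given as GI50. The concentration for full growth arrest is given as TGI.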
Key:
Experiment in all cases: NCI anticancer screen, dose series, 48 h
[1] = system: SW-620 colon
[2] = system: OVCAR-4 ovarian
[3] = system: DU-145 prostate
[4] = system: RXF 393 renal
[5] = system: CAKI-1 renal
[6] = system: SF-295 CNS
[7] = system: CCRF-CEM leukemia
[8] = system: KM12 colon
[9] = system: SK-OV-3 ovarian
[10] = system: HL-60(TB) leukemia
[11] = system: BT-549 breast
[12] = system: IGROV1 ovarian
[13] = system: NCI/ADR-RES ovarian
[14] = system: RPMI-8226 leukemia
[15] = system: SK-MEL-2 melanoma
[16] = system: NCI-H522 lung
[17] = system: HS 578T breast
[18] = system: SF-268 CNS
[19] = system: MCF7 breast
[20] = system: NCI-H460 lung
[21] = system: UO-31 renal
[22] = system: A498 renal
[23] = system: ACHN renal
[24] = system: A549 NSCLC
[25] = system: HOP-62 NSCLC
[26] = system: MDA-MB-231 breast
[27] = system: COLO 205 colon
[28] = system: HCT-15 colon
[29] = system: SN12C renal
[30] = system: OVCAR-3 ovarian
[31] = system: UACC-257 melanoma
[32] = system: HCC-2998 colon
[33] = system: EKVX NSCLC
[34] = system: 786-0 renal
[35] = system: U251 CNS
[36] = system: HCT-116 colon
[37] = system: SR leukemia
[38] = system: SK-MEL-28 melanoma
[39] = system: OVCAR-8 ovarian
[40] = system: MDA-MB-435
[41] = system: SNB-19 CNS
[42] = system: NCI-H23 lung
[43] = system: UACC-62 melanoma
[44] = system: SK-MEL-5 melanoma
[45] = system: HOP-92 NSCLC
[46] = system: SNB-75 CNS
[47] = system: T-47D breast
[48] = system: K-562 leukemia
[49] = system: OVCAR-5 ovarian
[50] = system: TK-10 renal
[51] = system: NCI-H226 lung
[52] = system: LOX IMVI melanoma
[53] = system: PC-3 prostate
[54] = system: MALME-3M melanoma
[55] = system: MOLT-4 leukemia
[56] = system: SF-539 CNS

Structure (SMILES): COc1ccc2c(c1)C(=O)c1c-2n(CCCn2ccnc2)c(=O)c2ccccc12
- GI50 [1]: 247 nM
- TGI [1]: 7.59 µM
- GI50 [2]: 1330 nM
- TGI [2]: > 100 µM
- GI50 [3]: 247 nM
- TGI [3]: 4.66 µM
- GI50 [4]: 431 nM
- TGI [4]: 2000 nM
- GI50 [5]: 211 nM
- TGI [5]: 1340 nM
- GI50 [6]: 101 nM
- TGI [6]: 2130 nM
- GI50 [7]: 213 nM
- TGI [7]: 24.8 µM
- GI50 [8]: 729 nM
- TGI [8]: 3.78 µM
- GI50 [9]: 595 nM
- TGI [9]: 4.59 µM
- GI50 [10]: 1490 nM
- TGI [10]: 18.4 µM
- GI50 [11]: 478 nM
- TGI [11]: 3.87 µM
- GI50 [12]: 204 nM
- TGI [12]: 2550 nM
- GI50 [13]: 634 nM
- TGI [13]: 5.92 µM
- GI50 [14]: 223 nM
- TGI [14]: 2000 nM
- GI50 [15]: 843 nM
- TGI [15]: 8.82 µM
- GI50 [16]: 174 nM
- TGI [16]: 5.5 µM
- GI50 [17]: 1490 nM
- TGI [17]: 17.8 µM
- GI50 [18]: 214 nM
- TGI [18]: > 25.3 µM
- GI50 [19]: 24.1 nM
- TGI [19]: 1840 nM
- GI50 [20]: 128 nM
- TGI [20]: 1460 nM
- GI50 [21]: 86.7 nM
- TGI [21]: 476 nM
- GI50 [22]: 471 nM
- TGI [22]: 1760 nM
- GI50 [23]: 144 nM
- TGI [23]: 1040 nM
- GI50 [24]: 511 nM
- TGI [24]: 4.66 µM
- GI50 [25]: 137 nM
- TGI [25]: 781 nM
- GI50 [26]: 3.79 µM
- TGI [26]: > 79.1 µM
- GI50 [27]: 579 nM
- TGI [27]: 14.3 µM
- GI50 [28]: 1240 nM
- TGI [28]: 7.72 µM
- GI50 [29]: 692 nM
- TGI [29]: > 100 µM
- GI50 [30]: 901 nM
- GI50 [31]: 1140 nM
- TGI [31]: 10.9 µM
- GI50 [32]: 720 nM
- TGI [32]: 2910 nM
- GI50 [33]: 1510 nM
- TGI [33]: 11.9 µM
- GI50 [34]: 239 nM
- TGI [34]: 1660 nM
- GI50 [35]: 126 nM
- TGI [35]: 2600 nM
- GI50 [36]: 235 nM
- TGI [36]: 740 nM
- GI50 [37]: 76.5 nM
- TGI [37]: 7.81 µM
- GI50 [38]: 2080 nM
- TGI [38]: > 57.4 µM
- GI50 [39]: 602 nM
- TGI [39]: > 69.2 µM
- GI50 [40]: 670 nM
- TGI [40]: 3.24 µM
- GI50 [41]: 293 nM
- TGI [41]: > 46.5 µM
- GI50 [42]: 284 nM
- TGI [42]: 7.86 µM
- GI50 [43]: 403 nM
- TGI [43]: 1860 nM
- GI50 [44]: 154 nM
- TGI [44]: 344 nM
- GI50 [45]: 1030 nM
- TGI [45]: > 23.2 µM
- GI50 [46]: 843 nM
- TGI [46]: > 22.4 µM
- GI50 [47]: 399 nM
- TGI [47]: 5.68 µM
- GI50 [48]: 548 nM
- TGI [48]: > 100 µM
- GI50 [49]: 1240 nM
- TGI [49]: 3.92 µM
- GI50 [50]: 2090 nM
- TGI [50]: 15.4 µM
- GI50 [51]: 1120 nM
- TGI [51]: 5.58 µM
- GI50 [52]: 179 nM
- TGI [52]: 835 nM
- GI50 [53]: 765 nM
- TGI [53]: > 100 µM
- GI50 [54]: 1250 nM
- TGI [54]: 6.44 µM
- GI50 [55]: 136 nM
- TGI [55]: > 100 µM
- GI50 [56]: 244 nM
- TGI [56]: 906 nM

From PubChem BioAssay (NCI)
